Key:
[1] = Pharmacokinetic experiment in mice; assay type: in vivo; details: CD1 male mice, intravenous 2 mg/kg; for F: oral 10 mg/kg by gavage; for AUC(0-inf) / Cmax: mouse, plasma, oral 10 mg/kg by gavage (route of value not stated)
Source text: Effect embodiment 2: Pharmacokinetic experiment in mice
Reagents: Acetonitrile, formic acid, methanol (HPLC grade) were purchased from Sigma-Aldrich (USA.), and pure water was purchased from Hangzhou Wahaha Group Co., Ltd. (Hangzhou, China). Other chemical reagents were all analytically pure reagents.
Experimental instruments: liquid chromatograph mass spectrometer (UPLC-MS/MS, composed of AB SCIEX TRIPLE QUAD 6500 triple quadrupole mass spectrometer, Shimadzu high performance liquid phase system. The Analyst 1.6.2 data acquisition and processing system was adopted).
Experimental animals: 6 CD1 male mice, 29-30 g before administration, were purchased from Shanghai Jihui Experimental Animal Breeding Co., Ltd., and the animal certificate number is SCXK(SH) 2017-0012 20170012001403. Before the experiment, the animals should be kept for at least 3 days to adapt to the environment. Throughout the experiment, the animals had free access to food and water.
1) Preparation of a mother liquor: A certain amount of the test drug was weighed in a clean sample bottle, then dimethyl sulfoxide was added, vortexed thoroughly for 1 min, and sonicated for 5 min to give a 4 mg/mL solution.
Drug preparation for intravenous administration: A certain amount of the above solution was taken and placed in a clean sample bottle, then polyethylene glycol-15 hydroxystearate was added, vortexed thoroughly for 1 min, then normal saline was added, and the mixture was continued vortexing for 1 min to give […] solution A.
Drug preparation for oral administration: A certain amount of the test drug was weighed and placed in a clean sample bottle, then a pre-prepared vehicle “10% (w/v) polyoxyethylene 40 hydrogenated castor+20% (w/v) sulfobutyl ether β-cyclodextrin+70% water” was added, vortexed thoroughly for 1 min, magnetically stirred for 20-25 min, and sonicated for 10 min to give 1 mg/mL solution B.
2) Intravenous administration: 3 mice were injected with 2 mg/kg (5 mL/kg) solution A through the tail vein.
Oral administration: 3 mice were given 10 mg/kg (10 mL/kg) solution B by gavage.
3) Collection and storage of plasma samples: Blood samples were collected from the orbital venous plexus of mice according to predetermined time points (5 minutes, 15 minutes, 30 minutes, 1 hour, 2 hours, 4 hours, 8 hours and 24 hours). 25 μL of blood was placed in EDTA-K2 anticoagulant tubes (placed on wet ice), and 20 μL of blood was immediately diluted with 60 μL of water and vortexed until evenly mixed. Plasma was stored in a −70° C. refrigerator for long-term storage until sample analysis.
4) Analysis of plasma samples: 200 μL of acetonitrile (containing 100 ng/mL internal standard) was added to 25 μL of plasma sample, vortexed for 10 minutes, and centrifuged at 5800 rpm for 10 minutes. 70 μL of supernatant was transferred to a 96-well injection plate. 1 μL of plasma sample was analyzed by LC-MS/MS.
5) The pharmacokinetic parameters were calculated according to the test results.

PD-1/PD-L1 = PD-1/PD-L1 (Homo sapiens (Human), UniProt Q9NZQ7); test: Homogeneous time-resolved fluorescence (HTRF) binding assay; details: CisBio kit, read-out: IC50 of compounds binding to PD-1/PD-L1
Source text: Effect embodiment 1: Homogenouse time-resolved fluorescence
Homogeneous time-resolved fluorescence (HTRF) binding assay was used to determine the binding ability of the compound of the present disclosure to PD-1/PD-L1.
The purchased kit (CisBio, #64CUS000C-1) contained reagents required for assays such as PD-1, PD-L1, anti-tag1-Eu, Anti-tag2-XL665, dilute buffer, and detection buffer.
1. The compound was formulated to 10 concentrations with a 3-fold gradient with 100% DMSO.
2. The DMSO solution of the compound was added to the dilute buffer, mixed thoroughly, then transferred to a 96-well plate.
3. PD-L1 was diluted with dilute buffer, then added to the above 96-well plate.
4. PD-1 was diluted with dilute buffer and added to the above 96-well plate, which was then incubated at room temperature for 30 minutes.
5. A portion of anti-tag1-Eu and a portion of anti-tag2-XL665 were added to the detection buffer, mixed thoroughly and transferred to the above 96-well plate.
6. The mixture in the above 96-well plate was incubated at room temperature for 1 to 24 hours.
7. HTRF values were read with Envision.

Sequence of PD-1/PD-L1 (Q9NZQ7 19-238): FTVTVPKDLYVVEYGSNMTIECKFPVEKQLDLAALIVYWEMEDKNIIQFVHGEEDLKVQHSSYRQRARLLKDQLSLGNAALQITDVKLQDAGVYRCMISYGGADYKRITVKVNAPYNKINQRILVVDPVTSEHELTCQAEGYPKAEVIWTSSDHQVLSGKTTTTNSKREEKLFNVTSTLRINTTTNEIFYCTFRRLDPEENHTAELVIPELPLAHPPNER

COc1cc(/C=C/c2nccc(-c3ccccc3)c2C)c(C(F)(F)F)cc1CN1CCCC[C@H]1C(=O)O [reference compound]
F [1]: 23.6% | AUC(0-inf) [1]: 2300 ng·h/mL | Cmax [1]: 673 ng/mL

COc1cc(/C=C/c2nccc(-c3ccccc3)c2C#N)c(C(F)(F)F)cc1CN1CCCC[C@H]1C(=O)O [reference compound]
F [1]: 16.4% | AUC(0-inf) [1]: 1000 ng·h/mL | Cmax [1]: 254 ng/mL

COc1cc(/C=C/c2cccc(-c3ccccc3)c2C)c(C(F)(F)F)cc1CN1CCCC[C@H]1C(=O)O [drawing 201]
F [1]: 72.4% | AUC(0-inf) [1]: 40600 ng·h/mL | Cmax [1]: 1870 ng/mL

Cc1cc(/C=C/c2cccc(-c3ccccc3)c2C#N)c(Cl)cc1CN1CCCC[C@H]1C(=O)O [drawing 205]
F [1]: 80.6% | AUC(0-inf) [1]: 16800 ng·h/mL | Cmax [1]: 2130 ng/mL

Cc1cc(/C=C/c2nccc(-c3ccccc3)c2C#N)c(Cl)cc1CN1CCCC[C@H]1C(=O)O [reference compound]
F [1]: 74.1% | AUC(0-inf) [1]: 8580 ng·h/mL | Cmax [1]: 1260 ng/mL

N#CCOc1cc(/C=C/c2cccc(-c3ccccc3)c2C#N)c(CN2CCCC[C@H]2C(=O)O)cc1Cl [Compound 47, (S,E)-1-(5-Chloro-2-(2-(2-cyano-[1,1′-biphenyl]-3-yl)vinyl)-4-(cyanomethoxy)benzyl)piperidine-2-carboxylic acid]
IC50 (PD-1/PD-L1): > 10000 nM

COc1cc(CN2CCCC[C@H]2C(=O)O)c(OC)cc1/C=C/c1cccc(-c2ccccc2)c1C [Compound 63, (S,E)-1-(2,5-Dimethoxy-4-(2-(2-methyl-[1,1′-biphenyl]-3-yl)vinyl)benzyl)piperidine-2-carboxylic acid]
IC50 (PD-1/PD-L1): 30.5 nM

Cc1cc(CNCC(=O)O)c(OCCCCC#N)cc1/C=C/c1cccc(-c2ccccc2)c1C#N [Compound 16, (E)-(4-(2-(2-Cyano-[1,1′-biphenyl]-3-yl)vinyl)-2-(4-cyanobutoxy)-5-methylbenzyl)glycine]
IC50 (PD-1/PD-L1): 14.5 nM

Cc1ccc(OCCCCC#N)c(CN2CCOC[C@H]2C(=O)O)c1/C=C/c1cccc(-c2ccccc2)c1C#N [Compound 46, (S,E)-4-(2-(2-(2-Cyano-[1,1′-biphenyl]-3-yl)vinyl)-6-(4-cyanobutoxy)-3-methylbenzyl)morpholine-3-carboxylic acid]
IC50 (PD-1/PD-L1): > 10000 nM

Cc1cc(/C=C/c2cccc(-c3ccccc3)c2C#N)c(Cl)cc1CN1CCN(C)C[C@H]1C(=O)O [Compound 14, (S,E)-1-(5-Chloro-4-(2-(2-cyano-[1,1′-biphenyl]-3-yl)vinyl)-2-methylbenzyl)-4-methylpiperazine-2-carboxylic acid]
IC50 (PD-1/PD-L1): 85.2 nM

Cc1c(/C=C/c2cc(OCc3cccc(I)c3)c(CN3CCCC[C@H]3C(=O)O)cc2C(F)(F)F)cccc1-c1ccccc1 [Compound 77]
IC50 (PD-1/PD-L1): 5.91 nM

[2H]C([2H])([2H])Oc1cc(/C=C/c2cccc(-c3ccccc3)c2C)c(Cl)cc1CN1CCCC[C@H]1C(=O)O [Compound 59, (S,E)-1-(5-Chloro-2-(methoxy-d3)-4-(2-(2-methyl-[1,1′-biphenyl]-3-yl)vinyl)benzyl)piperidine-2-carboxylic acid]
IC50 (PD-1/PD-L1): 8.9 nM

Cc1cc(/C=C/c2cccc(-c3ccccc3)c2C#N)c(Cl)cc1CN1CCOC[C@H]1C(=O)O [Compound 9, (S,E)-4-(5-Chloro-4-(2-(2-cyano-[1,1′-biphenyl]-3-yl)vinyl)-2-methylbenzyl)morpholine-3-carboxylic acid]
IC50 (PD-1/PD-L1): 25.8 nM

COc1cc(/C=C/c2cccc(-c3ccccc3)c2C#N)c(C(F)(F)F)cc1CN1CCCC[C@H]1C(=O)O [drawing 203]
F [1]: 69.7% | AUC(0-inf) [1]: 7620 ng·h/mL | Cmax [1]: 1400 ng/mL

COc1cc(/C=C/c2cccc(-c3ccccc3)c2C#N)c(C(F)(F)F)cc1CN1CCCC[C@H]1C(=O)O [Compound 7, (S,E)-1-(4-(2-(2-Cyano-[1,1′-biphenyl]-3-yl)vinyl)-2-methoxy-5-trifluoromethylbenzyl)piperidine-2-carboxylic acid]
IC50 (PD-1/PD-L1): 1.9 nM

Cc1cc(CN2CCOC[C@H]2C(=O)O)c(OCCCCC#N)cc1/C=C/c1cccc(-c2ccccc2)c1C#N [Compound 17, (S,E)-4-(4-(2-(2-Cyano-[1,1′-biphenyl]-3-yl)vinyl)-2-(4-cyanobutoxy)-5-methylbenzyl)morpholine-3-carboxylic acid]
IC50 (PD-1/PD-L1): 4.4 nM

COCCOc1cc(C)c(/C=C/c2cccc(-c3ccccc3)c2C#N)cc1CN1CCCC[C@H]1C(=O)O [Compound 43, (S,E)-1-(5-(2-(2-Cyano-[1,1′-biphenyl]-3-yl)vinyl)-2-(2-methoxyethoxy)-4-methylbenzyl)piperidine-2-carboxylic acid]
IC50 (PD-1/PD-L1): 83.9 nM

Cc1cc(OCCCCC#N)c(CN2CCOC[C@H]2C(=O)O)cc1/C=C/c1cccc(-c2ccccc2)c1C#N [Compound 40, (S,E)-4-(5-(2-(2-Cyano-[1,1′-biphenyl]-3-yl)vinyl)-2-(4-cyanobutoxy)-4-methylbenzyl)morpholine-3-carboxylic acid]
IC50 (PD-1/PD-L1): 1440 nM

Cc1cc(OCCO)c(CN2CCCC[C@H]2C(=O)O)cc1/C=C/c1cccc(-c2ccccc2)c1C#N [Compound 41, (S,E)-1-(5-(2-(2-Cyano-[1,1′-biphenyl]-3-yl)vinyl)-2-(2-hydroxyethoxy)-4-methylbenzyl)piperidine-2-carboxylic acid]
IC50 (PD-1/PD-L1): 281 nM

Cc1cc(CN2CCCC[C@H]2C(=O)O)c(OCCCF)cc1/C=C/c1cccc(-c2ccccc2)c1C [Compound 84, (S,E)-1-(2-(3-Fluoropropoxy)-5-methyl-4-(2-(2-methyl-[1,1′-biphenyl]-3-yl)vinyl)benzyl)piperidine-2-carboxylic acid]
IC50 (PD-1/PD-L1): 8.03 nM

Cc1cc(CN2CCCC[C@H]2C(=O)O)c(O)cc1/C=C/c1cccc(-c2ccccc2)c1C#N [Compound 31, (S,E)-1-(4-(2-(2-Cyano-[1,1′-biphenyl]-3-yl)vinyl)-2-hydroxy-5-methylbenzyl)piperidine-2-carboxylic acid]
IC50 (PD-1/PD-L1): 1160 nM

COc1cc(/C=C/c2cccc(-c3ccccc3)c2CF)c(C(F)(F)F)cc1CN1CCCC[C@H]1C(=O)O [Compound 73, (S,E)-1-(4-(2-(2-Fluoromethyl-[1,1′-biphenyl]-3-yl)vinyl)-2-methoxy-5-trifluoromethylbenzyl)piperidine-2-carboxylic acid]
IC50 (PD-1/PD-L1): 3.99 nM

COc1cc(/C(Br)=C/c2cccc(-c3ccccc3)c2C)c(C(F)(F)F)cc1CNCCO [Compound 66, (Z)-2-((4-(1-Bromo-2-(2-methyl-[1,1′-biphenyl]-3-yl)vinyl)-2-methoxy-5-trifluoromethylbenzyl)amino)-1-ethanol]
IC50 (PD-1/PD-L1): 41.7 nM

Cc1cc(CN2CCCC[C@H]2C(=O)O)c(OCCCCF)cc1/C=C/c1cccc(-c2ccccc2)c1C [Compound 83, (S,E)-1-(2-(4-Fluorobutoxy)-5-methyl-4-(2-(2-methyl-[1,1′-biphenyl]-3-yl)vinyl)benzyl)piperidine-2-carboxylic acid]
IC50 (PD-1/PD-L1): 6.99 nM

(S,E)-1-(2-((3-Iodobenzyloxy)-5-methyl-4-(2-(2-methyl-[1,1′-biphenyl]-3-yl)vinyl)benzyl)piperidine-2-carboxylic acid [Compound 75]
IC50 (PD-1/PD-L1): 28.4 nM

Cc1cc(/C=C/c2cccc(-c3ccccc3)c2C)c(Cl)cc1CN1CCCC[C@H]1C(=O)O [Compound 5, (S,E)-1-(5-Chloro-2-methyl-4-(2-(2-methyl-[1,1′-biphenyl]-3-yl)vinyl)benzyl)piperidine-2-carboxylic acid]
IC50 (PD-1/PD-L1): 6.5 nM
